Reference: paper PMC9930359, “Cytotoxicity of the methanol extracts and compounds of Brucea antidysenterica (Simaroubaceae) towards multifactorial drug-resistant human cancer cell lines” (BMC Complementary Medicine and Therapies, 2023)

Assays:
AML12 hepatocytes = assay: Resazurin reduction assay (RRA), cytotoxicity on normal hepatocytes; assay type: cell-based
Protocol: (§1) The RPMI-1640 medium was used for the culture of CCRF-CEM and CEM/ADR5000 cells whilst DMEM medium was used for carcinoma cells. The culture media were supplemented (complete medium) with 10% fetal bovine serum and 1% penicillin/streptomycin (Invitrogen, Eggenstein, Germany). […] To maintain the resistance phenotype of the resistant carcinoma cell lines such as MDA-MB-231/BCRP and HCT116 p53^−/−, and U87MG.ΔEGFR cells, the complete DMEM medium containing geneticin at 800 ng/ml and 400 µg/ml, respectively were used [41, 42].
(§2) Cells were cultured in a standard condition consisted of a humidified 5% CO2 atmosphere and an incubation temperature of 37 °C. The tested concentration ranges were 0.63—80 µg/mL for the botanicals and 0.78—100 µM for phytochemicals. The incubation time of the treated cells was 72 h, and the fluorescence was measured with Infinite M2000 Pro™ plate reader (Tecan, Crailsheim, Germany). The wavelengths used were 544 nm for the excitation and 590 nm for the emission. […] The degree of resistance (D.R.) was set as the ratio of the IC50 values of samples in the resistant cell line vs that of corresponding sensitive cell line. The selectivity index (S.I.) was the ratio of the IC50 value of AML12 hepatocytes vs. that of HepG2 cells [13, 48].

HepG2 cells = assay: Resazurin reduction assay (RRA), cytotoxicity; assay type: cell-based; settings: Homo sapiens, HepG2, 72 h
Description: (§3) In this work, 9 cancer cell lines with various drug resistance patterns as well as AML12 hepatocytes as normal control cell line were used. […] The AML12 hepatocytes were used for the comparison of the activities of the samples with HepG2 [40]. […] The RPMI-1640 medium was used for the culture of CCRF-CEM and CEM/ADR5000 cells whilst DMEM medium was used for carcinoma cells. The culture media were supplemented (complete medium) with 10% fetal bovine serum and 1% penicillin/streptomycin (Invitrogen, Eggenstein, Germany). […] To maintain the resistance phenotype of the resistant carcinoma cell lines such as MDA-MB-231/BCRP and HCT116 p53^−/−, and U87MG.ΔEGFR cells, the complete DMEM medium containing geneticin at 800 ng/ml and 400 µg/ml, respectively were used [41, 42].
as §2

U87MG.ΔEGFR cells = assay: Resazurin reduction assay (RRA), cytotoxicity; assay type: cell-based, human; settings: Homo sapiens; U87MG.ΔEGFR, 72 h
Protocol: as §1, §2

U87MG cells = assay: Resazurin reduction assay (RRA), cytotoxicity; assay type: cell-based; settings: Homo sapiens, U-87 MG, 72 h
Description: as §3, §2

HCT116 p53−/− cells = assay: Resazurin reduction assay (RRA), cytotoxicity; assay type: cell-based, human; settings: Homo sapiens, HCT-116; HCT116 p53−/−, 72 h
Protocol: as §1, §2

[1] = tested on: A-549 lung carcinoma cells, MCF-7 breast cancer cells, and PC-3 prostate cancer cells; settings: three reported cancer cell lines ref Makong et al. [30]; cited from earlier work
MDA-MB-231-BCRP cells = assay: Resazurin reduction assay (RRA), cytotoxicity; settings: Homo sapiens, MDA-MB-231/BCRP, 72 h
Protocol: as §1, §2

CCRF-CEM leukemia cells = assay: Resazurin reduction assay (RRA), cytotoxicity; assay type: cell-based; settings: Homo sapiens, 72 h
Description: as §3, §2

MDA-MB-231-pcDNA cells = assay: Resazurin reduction assay (RRA), cytotoxicity; assay type: cell-based; settings: Homo sapiens, 72 h
Description: as §3, §2

HCT116 p53+/+ cells = assay: Resazurin reduction assay (RRA), cytotoxicity; assay type: cell-based; settings: Homo sapiens, HCT-116, 72 h
Description: as §3, §2

CEM/ADR5000 cells = assay: Resazurin reduction assay (RRA), cytotoxicity; assay type: cell-based, human
Protocol: as §1, §2

melting point: 254 to 256 °C
SMILES: COc1cc([C@H]2Oc3c(OC)cc4ccc(=O)oc4c3O[C@@H]2CO)cc(OC)c1O [Compound 6, cleomiscosin C]
IC50 (AML12 hepatocytes; Mus musculus, AML12 normal hepatocytes, 72 h): > 100 µM
Selectivity index (S.I.) (AML12 hepatocytes; ratio of IC50 in AML12 vs IC50 in HepG2 cells): > 6.46
IC50 (HepG2 cells): 15.5 ± 1.06 µM
IC50 (U87MG.ΔEGFR cells): > 100 µM
IC50 (U87MG cells): > 100 µM
IC50 (HCT116 p53−/− cells): > 100 µM
cytotoxic activity [1]: not active
IC50 (MDA-MB-231-BCRP cells): > 100 µM
IC50 (CCRF-CEM leukemia cells): 23.2 ± 1.63 µM
IC50 (MDA-MB-231-pcDNA cells): > 100 µM
IC50 (HCT116 p53+/+ cells): > 100 µM
IC50 (CEM/ADR5000 cells; Homo sapiens, CEM/ADR5000, 72 h): > 100 µM
Degree of resistance (D.R.) (CEM/ADR5000 cells; ratio of IC50 CEM/ADR5000 vs CCRF-CEM): > 4.31
